# Data reported in ChEMBL document CHEMBL4680318, “(S)-Erypoegin K, an isoflavone isolated from Erythrina poeppigiana, is a novel inhibitor of topoisomerase IIα: Induction of G2 phase arrest in human gastric cancer cells” (Bioorg Med Chem, 2021).
# Active and inactive are the calls of the source. The calls are words filed in the database; no cut-off is given here.
# Experiments:
# HCT-116 = test: Growth inhibition of human HCT-116 cells measured after 48 hrs by sulforhodamine B assay; type: functional
# NCI-H23 = test: Growth inhibition of human NCI-H23 cells measured after 48 hrs by sulforhodamine B assay; type: functional
# SF-539 = test: Growth inhibition of human SF-539 cells measured after 48 hrs by sulforhodamine B assay; type: functional
# NCI-H522 = test: Growth inhibition of human NCI-H522 cells measured after 48 hrs by sulforhodamine B assay; type: functional
# DU-145 = test: Growth inhibition of human DU-145 cells measured after 48 hrs by sulforhodamine B assay; type: functional
# NCI-H226 = test: Growth inhibition of human NCI-H226 cells measured after 48 hrs by sulforhodamine B assay; type: functional
# [1] = Toxicity in KSN/Slc nude mouse xenografted with human GCIY cells assessed as effect on body weight at 40 mg/kg, ip administered twice a week for 4 weeks starting from day 4 post inoculation; type: organism-based; details: in vivo, 672 h
# PC-3 = test: Growth inhibition of human PC-3 cells measured after 48 hrs by sulforhodamine B assay; type: functional
# MKN-1 = test: Growth inhibition of human MKN-1 cells measured after 48 hrs by sulforhodamine B assay; type: functional
# MKN-28 = test: Growth inhibition of human MKN-28 cells measured after 48 hrs by sulforhodamine B assay; type: functional
# KM12 = test: Growth inhibition of human KM12 cells measured after 48 hrs by sulforhodamine B assay; type: functional
# DMS-273 = test: Growth inhibition of human DMS-273 cells measured after 48 hrs by sulforhodamine B assay; type: functional
# U-251 = test: Growth inhibition of human U-251 cells measured after 48 hrs by sulforhodamine B assay; type: functional
# MKN-45 = test: Growth inhibition of human MKN-45 cells measured after 48 hrs by sulforhodamine B assay; type: functional
# SNB-75 = test: Growth inhibition of human SNB-75 cells measured after 48 hrs by sulforhodamine B assay; type: functional
# St-4 = test: Growth inhibition of human St-4 cells measured after 48 hrs by sulforhodamine B assay; type: functional
# SK-OV-3 = test: Growth inhibition of human SK-OV-3 cells measured after 48 hrs by sulforhodamine B assay; type: functional
# SF-268 = test: Growth inhibition of human SF-268 cells measured after 48 hrs by sulforhodamine B assay; type: functional
# [2] = Growth inhibition of human HBC4 cells measured after 48 hrs by sulforhodamine B assay; type: functional
# OVCAR-4 = test: Growth inhibition of human OVCAR-4 cells measured after 48 hrs by sulforhodamine B assay; type: functional
# MCF7 = test: Growth inhibition of human MCF7 cells measured after 48 hrs by sulforhodamine B assay; type: functional
# [3] = Growth inhibition of human BSY1 cells measured after 48 hrs by sulforhodamine B assay; type: functional; details: BSY-1
# ACHN = test: Growth inhibition of human ACHN cells measured after 48 hrs by sulforhodamine B assay; type: functional
# OVCAR-5 = test: Growth inhibition of human OVCAR-5 cells measured after 48 hrs by sulforhodamine B assay; type: functional
# HCC 2998 = test: Growth inhibition of human HCC 2998 cells measured after 48 hrs by sulforhodamine B assay; type: functional
# HCT-15 = test: Growth inhibition of human HCT-15 cells measured after 48 hrs by sulforhodamine B assay; type: functional
# MKN-74 = test: Growth inhibition of human MKN-74 cells measured after 48 hrs by sulforhodamine B assay; type: functional
# SF-295 = test: Growth inhibition of human SF-295 cells measured after 48 hrs by sulforhodamine B assay; type: functional
# SNB-78 = test: Growth inhibition of human SNB-78 cells measured after 48 hrs by sulforhodamine B assay; type: functional
# OVCAR-3 = test: Growth inhibition of human OVCAR-3 cells measured after 48 hrs by sulforhodamine B assay; type: functional
# OVCAR-8 = test: Growth inhibition of human OVCAR-8 cells measured after 48 hrs by sulforhodamine B assay; type: functional
# MDA-MB-231 = test: Growth inhibition of human MDA-MB-231 cells measured after 48 hrs by sulforhodamine B assay; type: functional
# [4] = Growth inhibition of human HBC5 cells measured after 48 hrs by sulforhodamine B assay; type: functional
# DMS-114 = test: Growth inhibition of human DMS-114 cells measured after 48 hrs by sulforhodamine B assay; type: functional
# NCI-H460 = test: Growth inhibition of human NCI-H460 cells measured after 48 hrs by sulforhodamine B assay; type: functional
# A549 = test: Growth inhibition of human A549 cells measured after 48 hrs by sulforhodamine B assay; type: functional
# LOX IMVI = test: Growth inhibition of human LOX IMVI cells measured after 48 hrs by sulforhodamine B assay; type: functional
# GCIY = test: Antitumor activity against human GCIY cells xenografted in KSN/Slc nude mouse assessed as reduction in tumor size at 40 mg/kg, ip administered twice a week for 4 weeks starting from day 4 post inoculation by vernier caliper method; type: functional, organism-based
# RXF 631 = test: Growth inhibition of human RXF 631 cells measured after 48 hrs by sulforhodamine B assay; type: functional
# MKN-7 = test: Growth inhibition of human MKN-7 cells measured after 48 hrs by sulforhodamine B assay; type: functional
# HT-29 = test: Growth inhibition of human HT-29 cells measured after 48 hrs by sulforhodamine B assay; type: functional
# [5] = molecular target: DNA topoisomerase 2-alpha (Homo sapiens) (UniProt P11388); test: Inhibition of human DNA topoisomerase 2alpha assessed as stabilization of DNA cleavage complex at 50 to 200 uM using supercoiled pSL1180 plasmid DNA as substrate measured after 30 mins by ethidium bromide staining-based UV imaging analysis; details: dose 50-200 µM
# Sequence of DNA topoisomerase 2-alpha (Homo sapiens) (P11388 whole entry): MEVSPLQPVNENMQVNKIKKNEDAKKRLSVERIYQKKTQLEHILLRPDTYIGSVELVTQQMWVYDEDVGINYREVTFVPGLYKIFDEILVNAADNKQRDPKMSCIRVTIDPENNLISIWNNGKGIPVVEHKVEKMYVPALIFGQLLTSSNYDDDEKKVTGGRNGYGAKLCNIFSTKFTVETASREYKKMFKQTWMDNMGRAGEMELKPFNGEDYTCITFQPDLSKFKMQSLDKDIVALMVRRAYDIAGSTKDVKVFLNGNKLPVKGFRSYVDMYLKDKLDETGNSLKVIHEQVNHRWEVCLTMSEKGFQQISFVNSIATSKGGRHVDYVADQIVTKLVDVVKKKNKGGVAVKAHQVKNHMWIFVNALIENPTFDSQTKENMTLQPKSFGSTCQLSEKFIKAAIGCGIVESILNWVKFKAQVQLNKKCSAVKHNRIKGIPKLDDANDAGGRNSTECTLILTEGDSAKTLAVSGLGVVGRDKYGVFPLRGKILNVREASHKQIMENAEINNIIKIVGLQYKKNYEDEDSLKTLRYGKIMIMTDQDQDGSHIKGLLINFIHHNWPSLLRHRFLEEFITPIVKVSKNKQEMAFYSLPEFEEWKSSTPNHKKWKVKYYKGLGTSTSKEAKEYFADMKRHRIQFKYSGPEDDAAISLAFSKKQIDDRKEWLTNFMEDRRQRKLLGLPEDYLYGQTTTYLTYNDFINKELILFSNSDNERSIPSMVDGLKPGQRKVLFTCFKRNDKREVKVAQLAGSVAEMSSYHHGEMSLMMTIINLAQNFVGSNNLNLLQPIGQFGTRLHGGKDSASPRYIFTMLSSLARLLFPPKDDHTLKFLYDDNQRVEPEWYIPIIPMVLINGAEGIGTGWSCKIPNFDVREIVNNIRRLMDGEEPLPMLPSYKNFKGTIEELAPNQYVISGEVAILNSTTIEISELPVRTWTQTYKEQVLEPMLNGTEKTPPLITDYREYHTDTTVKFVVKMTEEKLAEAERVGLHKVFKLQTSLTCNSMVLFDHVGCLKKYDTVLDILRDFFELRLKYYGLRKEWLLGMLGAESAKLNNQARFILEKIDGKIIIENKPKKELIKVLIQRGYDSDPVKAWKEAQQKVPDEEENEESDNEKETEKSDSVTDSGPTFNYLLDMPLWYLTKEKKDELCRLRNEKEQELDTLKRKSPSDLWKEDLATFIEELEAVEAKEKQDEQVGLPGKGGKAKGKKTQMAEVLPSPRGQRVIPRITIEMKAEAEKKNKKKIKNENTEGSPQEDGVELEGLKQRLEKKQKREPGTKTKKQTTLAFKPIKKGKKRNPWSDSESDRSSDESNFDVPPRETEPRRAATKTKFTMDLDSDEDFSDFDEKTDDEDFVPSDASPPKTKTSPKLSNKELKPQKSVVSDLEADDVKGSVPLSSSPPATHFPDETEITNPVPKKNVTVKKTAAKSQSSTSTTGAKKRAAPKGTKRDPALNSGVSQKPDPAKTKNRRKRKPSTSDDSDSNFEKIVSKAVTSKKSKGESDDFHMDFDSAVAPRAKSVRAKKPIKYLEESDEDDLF
compound,measurement,setting,value
CC(C)(O)[C@H]1Cc2c(cc(O)c3c(=O)c(-c4ccc(O)cc4)coc23)O1,GI50,HCT-116,> 100 µM
same,GI50,NCI-H23,> 100 µM
same,GI50,SF-539,53.7 µM
same,GI50,NCI-H522,47.9 µM
same,GI50,DU-145,> 100 µM
same,GI50,NCI-H226,> 100 µM
same,Activity,[1],Non-Toxic
same,GI50,PC-3,91.2 µM
same,GI50,MKN-1,> 100 µM
same,GI50,MKN-28,> 100 µM
same,GI50,KM12,> 100 µM
same,GI50,DMS-273,> 100 µM
same,GI50,U-251,> 100 µM
same,GI50,MKN-45,> 100 µM
same,GI50,SNB-75,16.6 µM
same,GI50,St-4,> 100 µM
same,GI50,SK-OV-3,26.9 µM
same,GI50,SF-268,> 100 µM
same,GI50,[2],> 100 µM
same,GI50,OVCAR-4,> 100 µM
same,GI50,MCF7,89.1 µM
same,GI50,[3],> 100 µM
same,GI50,ACHN,> 100 µM
same,GI50,OVCAR-5,> 100 µM
same,GI50,HCC 2998,> 100 µM
same,GI50,HCT-15,> 100 µM
same,GI50,MKN-74,> 100 µM
same,GI50,SF-295,52.5 µM
same,GI50,SNB-78,> 100 µM
same,GI50,OVCAR-3,> 100 µM
same,GI50,OVCAR-8,> 100 µM
same,GI50,MDA-MB-231,45.7 µM
same,GI50,[4],> 100 µM
same,GI50,DMS-114,> 100 µM
same,GI50,NCI-H460,> 100 µM
same,GI50,A549,> 100 µM
same,GI50,LOX IMVI,> 100 µM
same,Activity,GCIY,inactive
same,GI50,RXF 631,85.1 µM
same,GI50,MKN-7,> 100 µM
same,GI50,HT-29,> 100 µM
O=c1[nH]cc(F)c(=O)[nH]1 [FLUOROURACIL],Activity,[1],Non-Toxic
same,Activity,GCIY,Active
COc1cc([C@@H]2c3cc4c(cc3[C@@H](O[C@@H]3O[C@@H]5CO[C@@H](C)O[C@H]5[C@H](O)[C@H]3O)[C@H]3COC(=O)[C@H]23)OCO4)cc(OC)c1O [ETOPOSIDE],GI50,HCT-116,14.8 µM
same,GI50,NCI-H23,4.07 µM
same,GI50,SF-539,1.86 µM
same,GI50,NCI-H522,4.68 µM
same,GI50,DU-145,2.82 µM
same,GI50,NCI-H226,4.9 µM
same,GI50,PC-3,> 100 µM
same,GI50,MKN-1,2.14 µM
same,GI50,MKN-28,21.4 µM
same,GI50,KM12,14.1 µM
same,GI50,DMS-273,1.74 µM
same,inhibition,[5],Active
same,GI50,U-251,2.34 µM
same,GI50,MKN-45,7.94 µM
same,GI50,SNB-75,6.92 µM
same,GI50,St-4,20.9 µM
same,GI50,SK-OV-3,3.98 µM
same,GI50,SF-268,5.37 µM
same,GI50,[2],16.6 µM
same,GI50,OVCAR-4,38.9 µM
same,GI50,MCF7,2.24 µM
same,GI50,[3],5.37 µM
same,GI50,ACHN,2.09 µM
same,GI50,OVCAR-5,19.5 µM
same,GI50,HCC 2998,5.62 µM
same,GI50,HCT-15,16.2 µM
same,GI50,MKN-74,49 µM
same,GI50,SF-295,2.75 µM
same,GI50,SNB-78,44.7 µM
same,GI50,OVCAR-3,23.4 µM
same,GI50,OVCAR-8,6.76 µM
same,GI50,MDA-MB-231,21.4 µM
same,GI50,[4],51.3 µM
same,GI50,DMS-114,2.88 µM
same,GI50,NCI-H460,1.15 µM
same,GI50,A549,2 µM
same,GI50,LOX IMVI,3.47 µM
same,GI50,RXF 631,12.3 µM
same,GI50,MKN-7,25.7 µM
same,GI50,HT-29,22.9 µM
O=c1c(-c2ccc(O)cc2)coc2cc(O)cc(O)c12 [GENISTEIN],GI50,HCT-116,25.1 µM
same,GI50,NCI-H23,36.3 µM
same,GI50,SF-539,26.3 µM
same,GI50,NCI-H522,17.8 µM
same,GI50,NCI-H226,27.5 µM
same,GI50,MKN-1,25.1 µM
same,GI50,MKN-28,39.8 µM
same,GI50,KM12,50.1 µM
same,GI50,DMS-273,21.9 µM
same,GI50,U-251,42.7 µM
same,GI50,MKN-45,32.4 µM
same,GI50,SNB-75,15.8 µM
same,GI50,St-4,46.8 µM
same,GI50,SK-OV-3,89.1 µM
same,GI50,SF-268,30.2 µM
same,GI50,[2],43.7 µM
same,GI50,OVCAR-4,43.7 µM
same,GI50,MCF7,42.7 µM
same,GI50,[3],43.7 µM
same,GI50,ACHN,19.5 µM
same,GI50,OVCAR-5,50.1 µM
same,GI50,HCC 2998,45.7 µM
same,GI50,HCT-15,30.2 µM
same,GI50,MKN-74,36.3 µM
same,GI50,SF-295,28.8 µM
same,GI50,SNB-78,38.9 µM
same,GI50,OVCAR-3,31.6 µM
same,GI50,OVCAR-8,35.5 µM
same,GI50,MDA-MB-231,37.2 µM
same,GI50,[4],26.9 µM
same,GI50,DMS-114,49 µM
same,GI50,NCI-H460,26.3 µM
same,GI50,A549,26.3 µM
same,GI50,LOX IMVI,18.2 µM
same,GI50,RXF 631,40.7 µM
same,GI50,MKN-7,30.2 µM
same,GI50,HT-29,53.7 µM
